According to US9113629B2, “4-amino-6-(4-substituted-phenyl)-picolinates and 6-amino-2-(4-substituted-phenyl)-pyrimidine-4-carboxylates and their use as herbicides” (DOW AGROSCIENCES LLC, priority 2013, dated 2015):

Experiments:
[1] = Post-emergent Test III, herbicidal activity in wheat and barley; format: in vivo, Lolium multiflorum, Lolium rigidum; details: Lolium multiflorum, post-emergence, 504 h, Table 9, post-emergent, 21 d, read-out: Visual Growth Reduction (%) 21 Days After Application LOLSS; for pest or weed control at 35 g/ha: 35 g ai/ha; for pest or weed control at 70 g/ha: 70 g ai/ha
Outline: (§1)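 GR20, GR50, GR80 and GR90 come from probit analysis of visual injury scores (0 = none, 100 = complete kill) taken 21 d after treatment. Foliar application was by track sprayer delivering 187 L/ha at five rates, from high down to 1/16×, onto greenhouse plants at the 2–3 leaf stage, with solvent-blank controls.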

[2] = tested on: APESV: bentgrass (Apera spica-venti); assay: as above; format: in vivo; details: Table 9, 21 d; for pest or weed control at 35 g/ha / pest or weed control at 70 g/ha: Apera spica-venti, post-emergence, 504 h, post-emergent, read-out: Visual Growth Reduction (%) 21 Days After Application APESV; for pest or weed control at 35 g/ha: 35 g ai/ha; for pest or weed control at 70 g/ha: 70 g ai/ha; for GR50 APESV: dose for 50 percent growth reduction; for GR50 APESV / GR80 APESV: probit analysis; for GR80 APESV: dose for 80 percent growth reduction
Outline: as §1

[3] = tested on: HORSS: barley, including spring and winter (Hordeum vulgare); assay: as above; format: in vivo; details: Table 9, 21 d; for pest or weed control at 35 g/ha / pest or weed control at 70 g/ha: Hordeum vulgare, post-emergence, 504 h, post-emergent, read-out: Visual Growth Reduction (%) 21 Days After Application HORSS; for pest or weed control at 35 g/ha: 35 g ai/ha; for pest or weed control at 70 g/ha: 70 g ai/ha; for GR20 HORSS: dose for 20 percent growth reduction, probit analysis
Outline: as §1

[4] = tested on: KCHSC: kochia (Kochia scoparia); assay: as above; format: in vivo; details: Table 9, 21 d; for pest or weed control at 35 g/ha / pest or weed control at 70 g/ha: Bassia scoparia, post-emergence, 504 h, post-emergent, read-out: Visual Growth Reduction (%) 21 Days After Application KCHSC; for pest or weed control at 35 g/ha: 35 g ai/ha; for pest or weed control at 70 g/ha: 70 g ai/ha; for GR50 KCHSC: dose for 50 percent growth reduction; for GR50 KCHSC / GR80 KCHSC: probit analysis; for GR80 KCHSC: dose for 80 percent growth reduction
Outline: as §1

[5] = tested on: LOLSS: ryegrass including, Italian ryegrass (Lolium multiflorum), rigid ryegrass (Lolium rigidum), annual ryegrass (Lolium multiflorum subsp. Gaudini); assay: as above; format: in vivo; details: Table 9, probit analysis, 21 d; for GR50 LOLSS: dose for 50 percent growth reduction; for GR80 LOLSS: dose for 80 percent growth reduction
Outline: as §1

[6] = tested on: SETVI: green foxtail (Setaria viridis); assay: as above; format: in vivo; details: Table 9, 21 d; for pest or weed control at 35 g/ha / pest or weed control at 70 g/ha: Setaria viridis, post-emergence, 504 h, post-emergent, read-out: Visual Growth Reduction (%) 21 Days After Application SETVI; for pest or weed control at 35 g/ha: 35 g ai/ha; for pest or weed control at 70 g/ha: 70 g ai/ha; for GR50 SETVI: dose for 50 percent growth reduction; for GR50 SETVI / GR80 SETVI: probit analysis; for GR80 SETVI: dose for 80 percent growth reduction
Outline: as §1

[7] = tested on: TRZSS: wheat, including spring and winter (Triticum aestivum); assay: as above; format: in vivo; details: Table 9, 21 d; for GR20 TRZSS: dose for 20 percent growth reduction, probit analysis; for pest or weed control at 35 g/ha / pest or weed control at 70 g/ha: Triticum aestivum, post-emergence, 504 h, post-emergent, read-out: Visual Growth Reduction (%) 21 Days After Application TRZSS; for pest or weed control at 35 g/ha: 35 g ai/ha; for pest or weed control at 70 g/ha: 70 g ai/ha
Outline: as §1

Compound	pest or weed control at 35 g/ha [1] [%]	pest or weed control at 70 g/ha [1] [%]	pest or weed control at 35 g/ha [2] [%]	pest or weed control at 70 g/ha [2] [%]	GR50 APESV [2] [g ai/ha]	GR80 APESV [2] [g ai/ha]	pest or weed control at 35 g/ha [3] [%]	pest or weed control at 70 g/ha [3] [%]	GR20 HORSS [3] [g ai/ha]	pest or weed control at 35 g/ha [4] [%]	pest or weed control at 70 g/ha [4] [%]	GR50 KCHSC [4] [g ai/ha]	GR80 KCHSC [4] [g ai/ha]	GR50 LOLSS [5] [g ai/ha]	GR80 LOLSS [5] [g ai/ha]	pest or weed control at 35 g/ha [6] [%]	pest or weed control at 70 g/ha [6] [%]	GR50 SETVI [6] [g ai/ha]	GR80 SETVI [6] [g ai/ha]	GR20 TRZSS [7] [g ai/ha]	other results
COc1c(N)nc(-c2ccc(C(F)(F)F)c(F)c2F)nc1C(=O)O [Compound 76]	30 to 44	45 to 59	75 to 84	85 to 94	27	52	60 to 74	60 to 74	6	0 to 29	45 to 59	74	132	53	133	45 to 59	60 to 74	42	87	4	pest or weed control at 35 g/ha [7]: 75 to 84%; pest or weed control at 70 g/ha [7]: 85 to 94%
Nc1cc(-c2ccc(C(F)(F)F)c(F)c2F)nc(C(=O)O)c1Cl [Compound 172, 4-amino-3-chloro-6-(2,3-difluoro-4-(trifluoromethyl)phenyl)picolinic acid]	0 to 29	0 to 29	30 to 44	60 to 74	53	124	60 to 74	60 to 74	3	60 to 74	60 to 74	38	73	>140	>140	60 to 74	75 to 84	25	56	1	pest or weed control at 35 g/ha [7]: 75 to 84%; pest or weed control at 70 g/ha [7]: 75 to 84%
